Experiments:
Type in all cases: in vivo
[1] = system: Diabrotica balteata (Corn Root Worm); experiment: Diabrotica balteata, maize sprouts on agar, L2 larvae; settings: 96 h, application rate of 200 ppm, 4 days after infestation, read-out: effect in at least one of the two categories (mortality or growth inhibition)
Protocol: Example B2: Diabrotica balteata (Corn Root Worm)
Maize sprouts placed onto an agar layer in 24-well microtiter plates were treated with aqueous test solutions prepared from 10′000 ppm DMSO stock solutions by spraying. After drying, the plates were infested with L2 larvae (6 to 10 per well). The samples were assessed for mortality and growth inhibition in comparison to untreated samples 4 days after infestation.

[2] = system: Euschistus heros (Neotropical Brown Stink Bug); experiment: Euschistus heros, soybean leaves on agar, N2 nymphs; settings: 120 h, application rate of 200 ppm, 5 days after infestation, read-out: effect in at least one of the two categories (mortality or growth inhibition)
Protocol: Example B3: Euschistus heros (Neotropical Brown Stink Bug)
Soybean leaves on agar in 24-well microtiter plates were sprayed with aqueous test solutions prepared from 10′000 ppm DMSO stock solutions. After drying the leaves were infested with N2 nymphs. The samples were assessed for mortality and growth inhibition in comparison to untreated samples 5 days after infestation.

[3] = system: Spodoptera littoralis (Egyptian Cotton Leaf Worm); experiment: Spodoptera littoralis, cotton leaf discs, L1 larvae; settings: foliar, 72 h, application rate of 200 ppm, 3 days after infestation
Protocol: Example B8: Spodoptera littoralis (Egyptian Cotton Leaf Worm)
Cotton leaf discs were placed onto agar in 24-well microtiter plates and sprayed with aqueous test solutions prepared from 10′000 ppm DMSO stock solutions. After drying the leaf discs were infested with five L1 larvae. The samples were assessed for mortality, anti-feeding effect, and growth inhibition in comparison to untreated samples 3 days after infestation. Control of Spodoptera littoralis by a test sample is given when at least one of the categories mortality, anti-feedant effect, and growth inhibition is higher than the untreated sample.

[4] = system: Plutella xylostella (Diamond Back Moth); experiment: Plutella xylostella, artificial diet, L2 larvae; settings: 120 h, application rate of 200 ppm, 5 days after infestation, read-out: effect in at least one of the two categories (mortality or growth inhibition)
Protocol: Example B7: Plutella xylostella (Diamond Back Moth)
24-well microtiter plates with artificial diet were treated with aqueous test solutions prepared from 10′000 ppm DMSO stock solutions by pipetting. After drying, the plates were infested with L2 larvae (10 to 15 per well). The samples were assessed for mortality and growth inhibition in comparison to untreated samples 5 days after infestation.

[5] = system: Myzus persicae (Green Peach Aphid); experiment: Myzus persicae feeding/contact activity, sunflower leaf discs; settings: foliar, 144 h, application rate of 200 ppm, 6 days after infestation
Protocol: Example B5: Myzus persicae (Green Peach Aphid): Feeding/Contact Activity
Sunflower leaf discs were placed onto agar in a 24-well microtiter plate and sprayed with aqueous test solutions prepared from 10′000 ppm DMSO stock solutions. After drying, the leaf discs were infested with an aphid population of mixed ages. The samples were assessed for mortality 6 days after infestation.

[6] = system: Spodoptera littoralis (Egyptian Cotton Leaf Worm); experiment: Spodoptera littoralis, uptake by lettuce roots from agar, eggs; settings: 144 h, test rate of 12.5 ppm, 6 days after infestation, read-out: effect in at least one of the three categories (mortality, anti-feeding, or growth inhibition)
Source text: Example B9: Spodoptera littoralis (Egyptian Cotton Leaf Worm)
Test compounds were applied by pipette from 10′000 ppm DMSO stock solutions into 24-well plates and mixed with agar. Lettuce seeds were placed onto the agar and the multi well plate was closed by another plate which contained also agar. After 7 days the compound was absorbed by the roots and the lettuce grew into the lid plate. The lettuce leaves were then cut off into the lid plate. Spodoptera eggs were pipetted through a plastic stencil onto a humid gel blotting paper and the lid plate was closed with it. The samples were assessed for mortality, anti-feedant effect and growth inhibition in comparison to untreated samples 6 days after infestation.

CCn1c(C(F)(F)F)cc2nc(-c3nc(-c4cccnc4)ccc3S(=O)(=O)CC)n(C)c2c1=O [Compound P30]
≥ 80%: percent effect (mortality or growth inhibition) at 200 ppm [1] | percent effect (mortality or growth inhibition) at 200 ppm [2] | percent control (mortality, anti-feedant effect or growth inhibition) at 200 ppm [3] | percent effect (mortality or growth inhibition) at 200 ppm [4] | mortality at 200 ppm [5]

CCn1c(C(F)(F)F)cc2nc(-c3nc(-c4ccsc4)ccc3S(=O)(=O)CC)n(C)c2c1=O [Compound P27]
≥ 80%: percent control (mortality, anti-feedant effect or growth inhibition) at 200 ppm [3]

CCn1c(C(F)(F)F)cc2nc(-c3nc(-c4cncs4)ccc3S(=O)(=O)CC)n(C)c2c1=O [Compound P31]
≥ 80%: percent effect (mortality or growth inhibition) at 200 ppm [1] | percent control (mortality, anti-feedant effect or growth inhibition) at 200 ppm [3] | percent effect (mortality or growth inhibition) at 200 ppm [4] | mortality at 200 ppm [5]

C/C=C/c1ccc(S(=O)(=O)CC)c(-c2nc3cc(C(F)(F)F)n(CC)c(=O)c3n2C)n1 [Compound P25]
≥ 80%: percent effect (mortality or growth inhibition) at 200 ppm [1] | percent control (mortality, anti-feedant effect or growth inhibition) at 200 ppm [3] | mortality at 200 ppm [5]

CCn1c(C(F)(F)F)cc2nc(-c3nc(-c4cc(F)cc(F)c4)ccc3S(=O)(=O)CC)n(C)c2c1=O [Compound P12]
≥ 80%: percent effect (mortality or growth inhibition) at 200 ppm [1] | percent effect (mortality or growth inhibition) at 200 ppm [2] | percent control (mortality, anti-feedant effect or growth inhibition) at 200 ppm [3] | percent effect (mortality or growth inhibition) at 200 ppm [4] | percent effect (mortality, anti-feeding or growth inhibition) at 12.5 ppm [6] | mortality at 200 ppm [5]

CCS(=O)(=O)c1ccc(-n2cc(C(F)(F)F)cn2)nc1-c1nc2cc(C(F)(F)F)n(C)c(=O)c2n1C [Compound P9]
≥ 80%: percent effect (mortality or growth inhibition) at 200 ppm [1] | percent effect (mortality or growth inhibition) at 200 ppm [2] | percent control (mortality, anti-feedant effect or growth inhibition) at 200 ppm [3] | percent effect (mortality or growth inhibition) at 200 ppm [4]

CCn1c(C(F)(F)F)cc2nc(-c3nc(-c4cc(F)cc(Cl)c4)ccc3S(=O)(=O)CC)n(C)c2c1=O [Compound P19]
≥ 80%: percent effect (mortality or growth inhibition) at 200 ppm [1] | percent control (mortality, anti-feedant effect or growth inhibition) at 200 ppm [3] | percent effect (mortality or growth inhibition) at 200 ppm [4]

CCn1c(C(F)(F)F)cc2nc(-c3nc(-c4ccc(C(F)(F)F)cc4F)ccc3S(=O)(=O)CC)n(C)c2c1=O [Compound P33]
≥ 80%: percent effect (mortality or growth inhibition) at 200 ppm [1] | percent control (mortality, anti-feedant effect or growth inhibition) at 200 ppm [3] | percent effect (mortality or growth inhibition) at 200 ppm [4]

CCn1c(C(F)(F)F)cc2nc(-c3nc(C4CC4)ccc3S(=O)(=O)CC)n(C)c2c1=O [Compound P39]
≥ 80%: percent effect (mortality or growth inhibition) at 200 ppm [1] | percent effect (mortality or growth inhibition) at 200 ppm [2] | percent control (mortality, anti-feedant effect or growth inhibition) at 200 ppm [3] | percent effect (mortality or growth inhibition) at 200 ppm [4] | percent effect (mortality, anti-feeding or growth inhibition) at 12.5 ppm [6] | mortality at 200 ppm [5]

CCn1c(C(F)(F)F)cc2nc(-c3nc(-c4ccc(C(F)(F)F)cc4)ccc3S(=O)(=O)CC)n(C)c2c1=O [Compound P2, 5-ethyl-2-[3-ethylsulfonyl-6-[4-(trifluoromethyl)phenyl]-2-pyridyl]-3-methyl-6-(trifluoromethyl)imidazo[4,5-c]pyridin-4-one]
≥ 80%: percent effect (mortality or growth inhibition) at 200 ppm [1] | percent effect (mortality or growth inhibition) at 200 ppm [2] | percent control (mortality, anti-feedant effect or growth inhibition) at 200 ppm [3] | percent effect (mortality or growth inhibition) at 200 ppm [4]

CCn1c(C(F)(F)F)cc2nc(-c3nc(-c4ccc(C#N)cc4)ccc3S(=O)(=O)CC)n(C)c2c1=O [Compound P15]
≥ 80%: percent effect (mortality or growth inhibition) at 200 ppm [1] | percent effect (mortality or growth inhibition) at 200 ppm [2] | percent control (mortality, anti-feedant effect or growth inhibition) at 200 ppm [3] | percent effect (mortality or growth inhibition) at 200 ppm [4] | percent effect (mortality, anti-feeding or growth inhibition) at 12.5 ppm [6]

CCS(=O)(=O)c1ccc(-n2cc(Cl)cn2)nc1-c1nc2cc(C(F)(F)F)n(C)c(=O)c2n1C [Compound P7, 2-[6-(4-chloropyrazol-1-yl)-3-ethylsulfonyl-2-pyridyl]-3,5-dimethyl-6-(trifluoromethyl)imidazo[4,5-c]pyridin-4-one]
≥ 80%: percent control (mortality, anti-feedant effect or growth inhibition) at 200 ppm [3]

CCn1c(C(F)(F)F)cc2nc(-c3nc(-c4ccc(OC)c(F)c4)ccc3S(=O)(=O)CC)n(C)c2c1=O [Compound P23]
≥ 80%: percent effect (mortality or growth inhibition) at 200 ppm [1] | percent effect (mortality or growth inhibition) at 200 ppm [2] | percent control (mortality, anti-feedant effect or growth inhibition) at 200 ppm [3] | percent effect (mortality or growth inhibition) at 200 ppm [4] | mortality at 200 ppm [5]

CCn1c(C(F)(F)F)cc2nc(-c3nc(-c4ccc(Cl)cc4Cl)ccc3S(=O)(=O)CC)n(C)c2c1=O [Compound P32]
≥ 80%: percent effect (mortality or growth inhibition) at 200 ppm [1] | percent control (mortality, anti-feedant effect or growth inhibition) at 200 ppm [3] | percent effect (mortality or growth inhibition) at 200 ppm [4]

CCn1c(C(F)(F)F)cc2nc(-c3nc(-c4ccccc4)ccc3S(=O)(=O)CC)n(C)c2c1=O [Compound P18]
≥ 80%: percent effect (mortality or growth inhibition) at 200 ppm [1] | percent effect (mortality or growth inhibition) at 200 ppm [2] | percent control (mortality, anti-feedant effect or growth inhibition) at 200 ppm [3] | percent effect (mortality or growth inhibition) at 200 ppm [4] | percent effect (mortality, anti-feeding or growth inhibition) at 12.5 ppm [6] | mortality at 200 ppm [5]

CCn1c(C(F)(F)F)cc2nc(-c3nc(-c4ccc(Cl)c(C)c4)ccc3S(=O)(=O)CC)n(C)c2c1=O [Compound P24]
≥ 80%: percent effect (mortality or growth inhibition) at 200 ppm [1] | percent control (mortality, anti-feedant effect or growth inhibition) at 200 ppm [3] | percent effect (mortality or growth inhibition) at 200 ppm [4]

CCS(=O)(=O)c1ccc(-c2cc(F)cc(F)c2)nc1-c1nc2cc(C(F)(F)F)n(C3CC3)c(=O)c2n1C [Compound P41]
≥ 80%: percent effect (mortality or growth inhibition) at 200 ppm [1] | percent control (mortality, anti-feedant effect or growth inhibition) at 200 ppm [3] | percent effect (mortality or growth inhibition) at 200 ppm [4] | percent effect (mortality, anti-feeding or growth inhibition) at 12.5 ppm [6]

CCn1c(C(F)(F)F)cc2nc(-c3nc(-c4ccc(F)cc4)ccc3S(=O)(=O)CC)n(C)c2c1=O [Compound P26]
≥ 80%: percent control (mortality, anti-feedant effect or growth inhibition) at 200 ppm [3] | percent effect (mortality or growth inhibition) at 200 ppm [4]

CCn1c(C(F)(F)F)cc2nc(-c3nc(-c4cc(C(F)(F)F)cc(C(F)(F)F)c4)ccc3S(=O)(=O)CC)n(C)c2c1=O [Compound P36]
≥ 80%: percent effect (mortality or growth inhibition) at 200 ppm [1] | percent control (mortality, anti-feedant effect or growth inhibition) at 200 ppm [3] | percent effect (mortality or growth inhibition) at 200 ppm [4]

CCn1c(C(F)(F)F)cc2nc(-c3nc(-c4cccc(Cl)c4)ccc3S(=O)(=O)CC)n(C)c2c1=O [Compound P17]
≥ 80%: percent effect (mortality or growth inhibition) at 200 ppm [1] | percent effect (mortality or growth inhibition) at 200 ppm [2] | percent control (mortality, anti-feedant effect or growth inhibition) at 200 ppm [3] | percent effect (mortality or growth inhibition) at 200 ppm [4] | mortality at 200 ppm [5]

CCn1c(C(F)(F)F)cc2nc(-c3nc(-c4ccc(OC(F)(F)F)cc4)ccc3S(=O)(=O)CC)n(C)c2c1=O [Compound P22]
≥ 80%: percent effect (mortality or growth inhibition) at 200 ppm [1] | percent effect (mortality or growth inhibition) at 200 ppm [2] | percent control (mortality, anti-feedant effect or growth inhibition) at 200 ppm [3] | percent effect (mortality or growth inhibition) at 200 ppm [4] | percent effect (mortality, anti-feeding or growth inhibition) at 12.5 ppm [6]

CCn1c(C(F)(F)F)cc2nc(-c3nc(-c4ccc(F)c(F)c4)ccc3S(=O)(=O)CC)n(C)c2c1=O [Compound P34]
≥ 80%: percent effect (mortality or growth inhibition) at 200 ppm [1] | percent control (mortality, anti-feedant effect or growth inhibition) at 200 ppm [3] | percent effect (mortality or growth inhibition) at 200 ppm [4]

CCn1c(C(F)(F)F)cc2nc(-c3nc(-c4cc(F)c(F)c(F)c4)ccc3S(=O)(=O)CC)n(C)c2c1=O [Compound P35]
≥ 80%: percent effect (mortality or growth inhibition) at 200 ppm [1] | percent effect (mortality or growth inhibition) at 200 ppm [2] | percent control (mortality, anti-feedant effect or growth inhibition) at 200 ppm [3] | percent effect (mortality or growth inhibition) at 200 ppm [4]

CCn1c(C(F)(F)F)cc2nc(-c3nc(-c4ccc(Cl)c(Cl)c4)ccc3S(=O)(=O)CC)n(C)c2c1=O [Compound P10]
≥ 80%: percent effect (mortality or growth inhibition) at 200 ppm [1] | percent control (mortality, anti-feedant effect or growth inhibition) at 200 ppm [3] | percent effect (mortality or growth inhibition) at 200 ppm [4]

Reference: patent US10745396B2, “Pesticidally active polycyclic derivatives with sulfur containing substituents” (Syngenta Participations AG, priority 2015, dated 2020)
